Laboratory results as given in patent publication US20210087191A1, “SUBSTITUTED 3-ISOBUTYL-9,10-DIMETHOXY-1,3,4,6,7,11B-HEXAHYDRO-2H-PYRIDO[2,1-a]ISOQUINOLIN-2-OL COMPOUNDS, THEIR [sequence], AND USE THEREOF” (DISPERSOL TECHNOLOGIES, LLC, priority 2020, published 2021).
≈ marks a conversion by molar mass, not a printed value. Where a name gives a salt, the structure may show the parent alone. Read-outs that look alike come from different tables or passages of the source.

Columns and labels:
[1] = Stability in human plasma (PS), LC-MS/MS; assay type: in vitro ADME; conditions: for half-life: read-out: Human PS t1/2
Procedure: (§1) Metabolism of compound(s) to release (+)-α-DTHBZ was determined by the half-life (t1/2) and intrinsic clearance (CIint) in human plasma (PS) and liver microsomes (LM) using tandem mass spectrometry (LC-MS/MS).

[2] = Metabolic stability in human liver microsomes (LM), LC-MS/MS (first table); assay type: in vitro ADME; conditions: for microsomal CLint: Table 1, read-out: Human LM CLint (μL/min/mg protein); for half-life: Table 1, read-out: Human LM t1/2
Procedure: as §1

[3] = LM stability assay, human (second table); assay type: in vitro ADME; conditions: human liver microsomes, Table 2; for microsomal CLint: read-out: LM stability assay Human Clint (μL/min/mg protein); for half-life: read-out: LM stability assay Human t1/2
Procedure: Metabolism of compound(s) to release (+)-α-DTHBZ was determined by the half-life (t1/2) and intrinsic clearance (CIint) in human liver microsomes (LM) using tandem mass spectrometry (LC-MS/MS).

[4] = Kinetic solubility in PBS buffer; assay type: physicochemical; conditions: aqueous buffer, kinetic from dmso stock, compound suspended at 300 μM, 25° C.
Procedure: Kinetic solubility was determined by suspending compound at 300 μM at pH 1.2 and 7.4 in PBS buffer. The suspension was equilibrated by shaking at 25° C. at 1100 RPM for 2 hours and then pH was measured following filtration. The filtrate was then diluted by an appropriate factor (e.g. 100-fold). Quantitation was done by LC-MS/MS with reference to a standard solution.

[5] = Heps. stability assay, human cryopreserved hepatocytes; assay type: in vitro ADME; conditions: for microsomal CLint: read-out: Heps. stability assay Human Clint (μL/min/mg protein); for half-life: read-out: Heps. stability assay Human t1/2
Procedure: Metabolism of compound(s) to release (+)-α-DTHBZ was determined by the half-life (t1/2) and intrinsic clearance (CIint) in human cryopreserved hepatocytes using tandem mass spectrometry (LC-MS/MS).

[6] = Permeability in Caco-2 cell monolayer; assay type: in vitro ADME; conditions: human; for efflux ratio: Caco-2; for Papp A→B: Caco-2, apical to basolateral; for Papp B→A: Caco-2, basolateral to apical
Procedure: The intestinal permeability of compound(s) was evaluated in Caco-2 cells by assessing transport across the cell monolayer in the apical to basolateral (A-B) direction. Active efflux was also assessed by measuring transport in the basolateral to apical (BA) direction which enables evaluation of the efflux ratio. Analysis of transport is quantified by tandem mass spectrometry (LC-MS/MS).

[7] = pH 1.2, PBS buffer, read-out: Kinetic Solubility pH = 1.2 (300 μM)
[8] = pH 7.4, PBS buffer, read-out: Kinetic Solubility pH = 7.4 (300 μM)

SMILES | microsomal CLint [2] | half-life [2] | half-life [1] | further results
COc1cc2c(cc1OC)[C@H]1C[C@@H](OC(=O)CCCCCCC(=O)O)[C@H](CC(C)C)CN1CC2 [Example 5, 8-[[(2R,3R,11bR)-9,10-dimethoxy-3-(2-methylpropyl)-1H,2H,3H,4H,6H,7H,11bH-pyrido[2,1-a]isoquinolin-2-yl]oxy]-8-oxooctanoic acid] | 3.16 µL/min/mg | 234 min |  | microsomal CLint [3]: 1.04 µL/min/mg; half-life [3]: 3410 min; Human PS t1/2 (min) [1]: ∞; solubility kinetic at 2 h [4, 7]: 276 µM (≈ 131 µg/mL); solubility kinetic at 2 h [4, 8]: 306 µM (≈ 146 µg/mL); microsomal CLint [5]: 50.7 µL/min/mg; half-life [5]: 27.4 min; efflux ratio [6]: 0.98; Papp A→B [6]: 22.4 ×10⁻⁶ cm/s; Papp B→A [6]: 22 ×10⁻⁶ cm/s
COc1cc2c(cc1OC)[C@H]1C[C@@H](OC(=O)CCC(=O)OC(C)C)[C@H](CC(C)C)CN1CC2 [Example 7, (2R,3R,11bR)-9,10-dimethoxy-3-(2-methylpropyl)-1H,2H,3H,4H,6H,7H,11bH-pyrido[2,1-a]isoquinolin-2-yl 1-isopropyl butanedioate] | 65.8 µL/min/mg | 10.6 min | > 812 min | microsomal CLint [3]: 922 µL/min/mg; half-life [3]: 0.75 min; solubility kinetic at 2 h [4, 7]: 311 µM (≈ 143 µg/mL); solubility kinetic at 2 h [4, 8]: 5.84 µM (≈ 2.7 µg/mL); microsomal CLint [5]: 282 µL/min/mg; half-life [5]: 4.92 min; efflux ratio [6]: 0.84; Papp A→B [6]: 1.78 ×10⁻⁶ cm/s; Papp B→A [6]: 1.5 ×10⁻⁶ cm/s
COc1cc2c(cc1OC)[C@H]1C[C@@H](OC(=O)c3cncc(C(=O)OC(C)C)c3)[C@H](CC(C)C)CN1CC2 [Example 9, 3-((2R,3R,11bR)-3-isobutyl-9,10-dimethoxy-1,3,4,6,7,11b-hexahydro-2H-pyrido[2,1-a]isoquinolin-2-yl) 5-isopropyl pyridine-3,5-dicarboxylate] | 16.3 µL/min/mg | 42.5 min |  | microsomal CLint [3]: 613 µL/min/mg; half-life [3]: 1.13 min; Human PS t1/2 (min) [1]: ∞; solubility kinetic at 2 h [4, 7]: 292 µM (≈ 149 µg/mL); solubility kinetic at 2 h [4, 8]: 0.0018 µM (≈ 0.000919 µg/mL); microsomal CLint [5]: 121 µL/min/mg; half-life [5]: 11.5 min; efflux ratio [6]: 0.95; Papp A→B [6]: 0.202 ×10⁻⁶ cm/s; Papp B→A [6]: 0.191 ×10⁻⁶ cm/s
COc1cc2c(cc1OC)[C@H]1C[C@@H](OC(=O)/C=C\C(=O)N[C@@H](Cc3ccccc3)C(=O)O)[C@H](CC(C)C)CN1CC2 [Example 14, (2S)-2-[(2Z)-4-[[(2R,3R,11bR)-9,10-dimethoxy-3-(2-methylpropyl)-1H,2H,3H,4H,6H,7H,11bH-pyrido[2,1-a]isoquinolin-2-yl]oxy]-4-oxobut-2-enamido]-3-phenylpropanoic acid] | 2.91 µL/min/mg | 249 min | 12 min | 
COc1cc2c(cc1OC)[C@H]1C[C@@H](OC(=O)/C=C/C(=O)O[C@@H]3C[C@@H]4c5cc(OC)c(OC)cc5CCN4C[C@H]3CC(C)C)[C@H](CC(C)C)CN1CC2 [Example 18, bis[(2R,3R,11bR)-9,10-dimethoxy-3-(2-methylpropyl)-1H,2H,3H,4H,6H,7H,11bH-pyrido[2,1-a]isoquinolin-2-yl] (2E)-but-2-enedioate] | 1.11 µL/min/mg | 1250 min | > 663 min | 
COc1cc2c(cc1OC)[C@H]1C[C@@H](OC(=O)/C=C\C(=O)O[C@@H]3C[C@@H]4c5cc(OC)c(OC)cc5CCN4C[C@H]3CC(C)C)[C@H](CC(C)C)CN1CC2 [Example 19, bis[(2R,3R,11bR)-9,10-dimethoxy-3-(2-methylpropyl)-1H,2H,3H,4H,6H,7H,11bH-pyrido[2,1-a]isoquinolin-2-yl] (2Z)-but-2-enedioate] | 0.84 µL/min/mg | > 821 min | 8020 min | 
COc1cc2c(cc1OC)[C@H]1C[C@@H](OC(=O)C(=O)O[C@@H]3C[C@@H]4c5cc(OC)c(OC)cc5CCN4C[C@H]3CC(C)C)[C@H](CC(C)C)CN1CC2 [Example 20, Bis[(2R,3R,11bR)-9,10-dimethoxy-3-(2-methylpropyl)-1H,2H,3H,4H,6H,7H,11bH-pyrido[2,1-a]isoquinolin-2-yl] oxalate] | 3.83 µL/min/mg | 192 min | 80.8 min | 
COc1cc2c(cc1OC)[C@H]1C[C@@H](OC(=O)OCOC(=O)C(C)C)[C@H](CC(C)C)CN1CC2 [Example 25, [([[(2R,3R,11bR)-9,10-dimethoxy-3-(2-methylpropyl)-1H,2H,3H,4H,6H,7H,11bH-pyrido[2,1-a]isoquinolin-2-yl]oxy]carbonyl)oxy]methyl 2-methylpropanoate] |  |  | 119 min | 
COc1cc2c(cc1OC)[C@H]1C[C@@H](OC(=O)OCOC(=O)CC(C)C)[C@H](CC(C)C)CN1CC2 [Example 26, [([[(2R,3R,11bR)-9,10-dimethoxy-3-(2-methylpropyl)-1H,2H,3H,4H,6H,7H,11bH-pyrido[2,1-a]isoquinolin-2-yl]oxy]carbonyl)oxy]methyl 3-methylbutanoate] | 1380 µL/min/mg | 0.5 min | 83.3 min | 

Further lines, with some results ahead:

microsomal CLint [2] | half-life [2] | half-life [1] | SMILES | further results
3.24 µL/min/mg | 415 min |  | COc1cc2c(cc1OC)[C@@H]1C[C@H](OC(=O)C(=O)O)[C@@H](CC(C)C)CN1CC2 (stereo in doubt) [Example 1, (2S,3S,11bS)-9,10-dimethoxy-3-(2-methylpropyl)-1H,2H,3H,4H,6H,7H,11bH-pyrido[2,1-a]isoquinolin-2-yl hydrogen oxalate] | Human PS t1/2 (min) [1]: ∞
 |  | 763 min | COc1cc2c(cc1OC)[C@@H]1C[C@H](OC(=O)/C=C/C(=O)O)[C@@H](CC(C)C)CN1CC2 (stereo in doubt) [Example 3, (2E)-4-[[(2S,3S,11bS)-9,10-dimethoxy-3-(2-methylpropyl)-1H,2H,3H,4H,6H,7H,11bH-pyrido[2,1-a]isoquinolin-2-yl]oxy]-4-oxobut-2-enoic acid] | Human LM t1/2 (min) ([2]; Table 1): ∞
< 3.4 µL/min/mg | > 204 min | 3300 min | COc1cc2c(cc1OC)[C@H]1C[C@@H](OC(=O)/C=C\C(=O)O)[C@H](CC(C)C)CN1CC2 [Example 4, (2Z)-4-[[(2R,3R,11bR)-9,10-dimethoxy-3-(2-methylpropyl)-1H,2H,3H,4H,6H,7H,11bH-pyrido[2,1-a]isoquinolin-2-yl]oxy]-4-oxobut-2-enoic acid] | 
98 µL/min/mg | 7.07 min | > 709 min | COc1cc2c(cc1OC)[C@H]1C[C@@H](OC(=O)/C=C/C(=O)OC(C)C)[C@H](CC(C)C)CN1CC2 [Example 8, (2R,3R,11bR)-9,10-dimethoxy-3-(2-methylpropyl)-1H,2H,3H,4H,6H,7H,11bH-pyrido[2,1-a]isoquinolin-2-yl 1-isopropyl (2E)-but-2-enedioate] | 
104 µL/min/mg | 6.67 min | > 226000 min | COc1cc2c(cc1OC)[C@H]1C[C@@H](OC(=O)/C=C\C(=O)OC(C)C)[C@H](CC(C)C)CN1CC2 [Example 10, (2R,3R,11bR)-9,10-dimethoxy-3-(2-methylpropyl)-1H,2H,3H,4H,6H,7H,11bH-pyrido[2,1-a]isoquinolin-2-yl 1-isopropyl (2Z)-but-2-enedioate] | 
4.24 µL/min/mg | 177 min | 13.5 min | COc1cc2c(cc1OC)[C@H]1C[C@@H](OC(=O)/C=C/C(=O)N[C@H](C(=O)O)C(C)C)[C@H](CC(C)C)CN1CC2 [Example 11, (2S)-2-[(2E)-4-[[(2R,3R,11bR)-9,10-dimethoxy-3-(2-methylpropyl)-1H,2H,3H,4H,6H,7H,11bH-pyrido[2,1-a]isoquinolin-2-yl]oxy]-4-oxobut-2-enamido]-3-methylbutanoic acid] | 
1.67 µL/min/mg | 483 min | > 20400 min | CCNC(=O)O[C@@H]1C[C@@H]2c3cc(OC)c(OC)cc3CCN2C[C@H]1CC(C)C [Example 21, (2R,3R,11bR)-9,10-dimethoxy-3-(2-methylpropyl)-1H,2H,3H,4H,6H,7H,11bH-pyrido[2,1-a]isoquinolin-2-yl N-ethylcarbamate] | 
5.15 µL/min/mg | 139 min | > 3930 min | COc1cc2c(cc1OC)[C@H]1C[C@@H](OC(=O)NC(C)C)[C@H](CC(C)C)CN1CC2 [Example 22, (2R,3R,11bR)-9,10-dimethoxy-3-(2-methylpropyl)-1H,2H,3H,4H,6H,7H,11bH-pyrido[2,1-a]isoquinolin-2-yl N-isopropylcarbamate] | 
 |  | 85.4 min | CCC(=O)OCOC(=O)O[C@@H]1C[C@@H]2c3cc(OC)c(OC)cc3CCN2C[C@H]1CC(C)C [Example 24, [([[(2R,3R,11bR)-9,10-dimethoxy-3-(2-methylpropyl)-1H,2H,3H,4H,6H,7H,11bH-pyrido[2,1-a]isoquinolin-2-yl]oxy]carbonyl)oxy]methylpropanoate] | 
